Assay results as given in paper PMC6901909, “Synergy Pattern of Short Cationic Antimicrobial Peptides Against Multidrug-Resistant Pseudomonas aeruginosa” (Frontiers in Microbiology, 2019).
Converted amounts (≈) assume the structure as drawn. Peptide text beside a SMILES is read from it.

Tests used:
[1] = system: MDR P. aeruginosa PA 919; assay: microbe, parasite or virus in culture; type: cell-based, Pseudomonas aeruginosa
Protocol: (§1) We selected six different P. aeruginosa isolates that were described as MDR and had been isolated from clinical and municipal waste water ([Schwartz et al., 2006]). The minimal inhibitory concentration (MIC) was determined in a microdilution assay using Mueller-Hinton (MH) broth following a previously published protocol ([Wiegand et al., 2008]). Briefly, a twofold serial dilution of the antibiotics and peptides were prepared and added to a bacteria solution, resulting in 2–5 10^5 CFU/ml. The microtiter plates (polypropylene, Corning) were incubated for 18 h at 37°C and MICs were taken visually.

[2] = system: MDR P. aeruginosa PA 910; assay: microbe, parasite or virus in culture; type: cell-based, Pseudomonas aeruginosa; conditions: MDR PA 910, 18 h
Protocol: as §1

[3] = system: MDR P. aeruginosa PA253; assay: microbe, parasite or virus in culture; type: cell-based, Pseudomonas aeruginosa
Protocol: as §1

[4] = system: P. aeruginosa PA01-wt; assay: microbe, parasite or virus in culture; type: cell-based, Pseudomonas aeruginosa
Protocol: as §1

[5] = system: MDR isolate of P. aeruginosa (PA 910); conditions: checkerboard, MHb
Protocol: The checkerboard assay was used to determine the fractional inhibitory concentrations (FICs), following the protocol described in Koneman’s Color Atlas and Textbook of Diagnostic Microbiology ([Winn et al., 2006]). Briefly, combinations of peptides and antibiotics were prepared in 96-well plates (polypropylene, Corning) in a twofold dilution series. After the addition of a log-phase bacterial inoculum of 2–5 × 10^5 CFU/ml, plates were incubated at 37°C for 18 h. The FICs were determined by visual inspection and the effects of the combinations were determined using the FICs. The FIC was computed by adding two partial FIC values, FICA—the MIC of drug A, tested in combination with drug B divided by the MIC of drug A, tested alone and FICB—the MIC of drug B, tested in combination with drug A divided by the MIC of drug B, tested alone [FIC = FICA + FICB = (MICAB/MICA) + (MICBA/MICB), where MICA and MICB are the MICs of drugs A and B alone, respectively, and MICAB and MICBA are the MIC concentrations of the drugs in combination]. Here we use the European Committee for Antimicrobial Susceptibility Testing (EUCAST) definition, which is very similar to the definition provided by [Odds, 2003], except Odds define additive effects when FIC values are between 0.5 and 1 ([European Committee for Antimicrobial Susceptibility Testing [EUCAST] of the European Society of Clinical Microbiology and Infectious Diseases [ESCMID], 2000]; [Odds, 2003]). The combination of peptide (drug A) and antibiotics (drug B) was defined as synergistic if the FIC was ≤ 0.5, indifferent if the FIC was > 0.5 but ≤ 4.0 and antagonistic if the FIC was > 4.0.

[6] = short AMPs, microdilution, Mueller-Hinton broth, 18 h at 37°C, read visually, triplicate (n = 3)

SMILES	MIC against MDR isolates of PA, PA919 ([1]; MDR PA 919, 18 h) [µM]	MIC against PA910 in μM (peptides, Table 4) [2] [µM]	MIC against MDR isolates of PA, PA253 ([3]; MDR PA253, 18 h) [µM]	MIC against PA01 wt ([4]; -wt, 18 h) [µM]	also measured
CC[C@H](C)[C@H](NC(=O)[C@@H](N)Cc1ccccc1)C(=O)N[C@@H](CCCCN)C(=O)N[C@@H](Cc1c[nH]c2ccccc12)C(=O)N[C@@H](CCCNC(=N)N)C(=O)N[C@@H](Cc1ccccc1)C(=O)N[C@@H](CCCNC(=N)N)C(=O)N[C@@H](CCCNC(=N)N)C(=O)N[C@@H](Cc1c[nH]c2ccccc12)C(=O)N[C@@H](CCCCN)C(=O)N[C@@H](CCCCN)C(=O)N[C@@H](CCCNC(=N)N)C(=O)N[C@@H](CCCCN)C(N)=O [Indopt 4] (H-FIKWRFRRWKKRK-NH2)	16 to 32	4 to 8	8	4 (≈ 7.74 µg/mL)	MIC against MDR isolates of PA, PA910 [2]: 4 to 8 µM
CC[C@H](C)[C@H](N)C(=O)N[C@@H](CC(C)C)C(=O)N[C@@H](CCCCN)C(=O)N[C@@H](Cc1c[nH]c2ccccc12)C(=O)N[C@@H](CCCCN)C(=O)N[C@@H](CCCNC(=N)N)C(=O)N[C@@H](CCCCN)C(=O)N[C@@H](Cc1c[nH]c2ccccc12)C(=O)N[C@@H](Cc1c[nH]c2ccccc12)C(=O)N[C@@H](CCCCN)C(=O)N[C@@H](Cc1c[nH]c2ccccc12)C(=O)N[C@@H](Cc1ccccc1)C(=O)N[C@@H](CCCNC(=N)N)C(N)=O [Indopt 7] (H-ILKWKRKWWKWFR-NH2)	32	4 (≈ 7.84 µg/mL)	8	2 (≈ 3.92 µg/mL)	–
CC[C@H](C)[C@H](N)C(=O)N[C@@H](CC(C)C)C(=O)N1CCC[C@H]1C(=O)N[C@@H](Cc1c[nH]c2ccccc12)C(=O)N[C@@H](CCCCN)C(=O)N[C@@H](Cc1c[nH]c2ccccc12)C(=O)N1CCC[C@H]1C(=O)N[C@@H](Cc1c[nH]c2ccccc12)C(=O)N[C@@H](Cc1c[nH]c2ccccc12)C(=O)N1CCC[C@H]1C(=O)N[C@@H](Cc1c[nH]c2ccccc12)C(=O)N[C@@H](CCCNC(=N)N)C(=O)N[C@@H](CCCNC(=N)N)C(N)=O [Indolic., indolicidin]	–	–	–	–	MIC against MDR isolates of PA, PA919 [1, 6]: 32 µM; MIC against MDR isolates of PA, PA253 [3, 6]: 64 to 128 µM; MIC against PA01 wt [4, 6]: 8 µM (≈ 15.3 µg/mL); FIC mean (SD), combination with CET ([5]; confirmation study, peptide + ceftazidime, Indopt versions 1/8 MHb, mean of at least three measurements (n = 3), SD in brackets): 0.71 (0.21); FIC, combination with AMI ([5]; peptide + amikacin, for the Indopt versions 1/8 MHb, 2–5 × 10^5 CFU/ml, 37°C, 18 h, visual, determined once (n = 1)): 0.75; FIC, combination with CEF ([5]; peptide + cefepime, for the Indopt versions 1/8 MHb, 2–5 × 10^5 CFU/ml, 37°C, 18 h, visual, determined once (n = 1)): 2; FIC, combination with CET ([5]; peptide + ceftazidime, for the Indopt versions 1/8 MHb, 2–5 × 10^5 CFU/ml, 37°C, 18 h, visual, determined once (n = 1)): 0.51; FIC, combination with CIP ([5]; peptide + ciprofloxacin, for the Indopt versions 1/8 MHb, 2–5 × 10^5 CFU/ml, 37°C, 18 h, visual, determined once (n = 1)): 0.5; FIC, combination with ERY ([5]; peptide + erythromycin, for the Indopt versions 1/8 MHb, 2–5 × 10^5 CFU/ml, 37°C, 18 h, visual, determined once (n = 1)): 0.63; FIC, combination with GEN ([5]; peptide + gentamycin, for the Indopt versions 1/8 MHb, 2–5 × 10^5 CFU/ml, 37°C, 18 h, visual, determined once (n = 1)): 0.5; FIC, combination with IMI ([5]; peptide + imipenem, for the Indopt versions 1/8 MHb, 2–5 × 10^5 CFU/ml, 37°C, 18 h, visual, determined once (n = 1)): 0.63; FIC, combination with KAN ([5]; peptide + kanamycin, for the Indopt versions 1/8 MHb, 2–5 × 10^5 CFU/ml, 37°C, 18 h, visual, determined once (n = 1)): 0.75; FIC, combination with MER ([5]; peptide + meropenem, for the Indopt versions 1/8 MHb, 2–5 × 10^5 CFU/ml, 37°C, 18 h, visual, determined once (n = 1)): 0.63; FIC, combination with PIP ([5]; peptide + piperacillin, for the Indopt versions 1/8 MHb, 2–5 × 10^5 CFU/ml, 37°C, 18 h, visual, determined once (n = 1)): 0.56; FIC, combination with PMB ([5]; peptide + polymyxin B, for the Indopt versions 1/8 MHb, 2–5 × 10^5 CFU/ml, 37°C, 18 h, visual, determined once (n = 1)): 0.25; FIC, combination with TET ([5]; peptide + tetracycline, for the Indopt versions 1/8 MHb, 2–5 × 10^5 CFU/ml, 37°C, 18 h, visual, determined once (n = 1)): 1; FIC, combination with TOB ([5]; peptide + tobramycin, for the Indopt versions 1/8 MHb, 2–5 × 10^5 CFU/ml, 37°C, 18 h, visual, determined once (n = 1)): 0.5
CC[C@H](C)[C@H](NC(=O)[C@H](CCCNC(=N)N)NC(=O)[C@H](Cc1c[nH]c2ccccc12)NC(=O)[C@H](CCCNC(=N)N)NC(=O)[C@H](CCCNC(=N)N)NC(=O)[C@@H](N)CCCCN)C(=O)N[C@@H](Cc1c[nH]c2ccccc12)C(=O)N[C@@H](CC(C)C)C(=O)N[C@H](C(N)=O)C(C)C [LOP3] (H-KRRWRIWLV-NH2)	4	8 (≈ 10.5 µg/mL)	4 to 8	4 (≈ 5.25 µg/mL)	–
CC[C@H](C)[C@H](NC(=O)[C@H](CCCNC(=N)N)NC(=O)[C@H](C)NC(=O)[C@H](CC(C)C)NC(=O)[C@@H](N)CCCNC(=N)N)C(=O)N[C@H](C(=O)N[C@H](C(=O)N[C@H](C(=O)N[C@@H](CCCNC(=N)N)C(=O)N[C@H](C(=O)N[C@@H](C)C(=O)N[C@@H](CCCNC(=N)N)C(N)=O)C(C)C)[C@@H](C)CC)C(C)C)C(C)C [Bac2a] (H-RLARIVVIRVAR-NH2)	16	32 (≈ 45.5 µg/mL)	32	16 (≈ 22.7 µg/mL)	–
CC[C@H](C)[C@H](NC(=O)[C@@H](N)Cc1ccccc1)C(=O)N[C@@H](CCCCN)C(=O)N[C@@H](CCCNC(=N)N)C(=O)N[C@@H](CCCCN)C(=O)N[C@@H](CO)C(=O)N[C@@H](CCCNC(=N)N)C(=O)N[C@@H](Cc1c[nH]c2ccccc12)C(=O)N[C@@H](Cc1c[nH]c2ccccc12)C(=O)N[C@@H](CCCCN)C(=O)N[C@@H](Cc1c[nH]c2ccccc12)C(=O)N[C@@H](CCCNC(=N)N)C(=O)N[C@H](C(N)=O)[C@@H](C)O [Indopt 6] (H-FIKRKSRWWKWRT-NH2)	32	8 (≈ 15 µg/mL)	8 to 16	4 (≈ 7.51 µg/mL)	–
CC(C)[C@H](NC(=O)[C@H](Cc1c[nH]c2ccccc12)NC(=O)[C@H](CCCNC(=N)N)NC(=O)[C@H](Cc1c[nH]c2ccccc12)NC(=O)[C@H](Cc1c[nH]c2ccccc12)NC(=O)[C@H](CCCNC(=N)N)NC(=O)[C@@H](N)CCCNC(=N)N)C(=O)N[C@H](C(=O)N[C@@H](Cc1c[nH]c2ccccc12)C(N)=O)C(C)C [LOP2] (H-RRWWRWVVW-NH2)	2	8 (≈ 11.4 µg/mL)	8	4 (≈ 5.71 µg/mL)	–
CC[C@H](C)[C@H](N)C(=O)N[C@@H](CC(C)C)C(=O)N[C@@H](CCCCN)C(=O)N[C@@H](Cc1c[nH]c2ccccc12)C(=O)N[C@@H](CCCCN)C(=O)N[C@H](C(=O)N[C@@H](Cc1ccccc1)C(=O)N[C@@H](CCCCN)C(=O)N[C@@H](Cc1c[nH]c2ccccc12)C(=O)N[C@@H](CCCCN)C(=O)N[C@@H](Cc1c[nH]c2ccccc12)C(=O)N[C@@H](Cc1ccccc1)C(=O)N[C@@H](CCCNC(=N)N)C(N)=O)[C@@H](C)CC [Indopt 10] (H-ILKWKIFKWKWFR-NH2)	32	4 (≈ 7.51 µg/mL)	8 to 16	2 (≈ 3.76 µg/mL)	–
CC[C@H](C)[C@H](NC(=O)[C@@H](N)Cc1ccccc1)C(=O)N[C@@H](CCCCN)C(=O)N[C@@H](Cc1c[nH]c2ccccc12)C(=O)N[C@@H](CCCNC(=N)N)C(=O)N[C@@H](CO)C(=O)N[C@@H](CCCNC(=N)N)C(=O)N[C@@H](Cc1c[nH]c2ccccc12)C(=O)N[C@@H](Cc1c[nH]c2ccccc12)C(=O)N[C@@H](CCCCN)C(=O)N[C@@H](CCCCN)C(=O)N[C@@H](CCCNC(=N)N)C(=O)N[C@H](C(N)=O)[C@@H](C)O [Indopt 3] (H-FIKWRSRWWKKRT-NH2)	32	8 (≈ 15 µg/mL)	16	4 (≈ 7.51 µg/mL)	–
